One series has as its target MC4 receptor (Homo sapiens, UniProt P32245). Nature of the series: MC4 EC50 functional potency (protocol E of US2005/0176772 / WO 2005/077935). It counts as cell-based. The procedure: The compounds of formula (I) of the present invention have utility as MCR4 agonists in the treatment of various disease states.
MC5 and MC4 EC50 activity was determined as described by assay protocols D and E, respectively, in US2005/0176772 (pages 28-30).

In another series the target is T1, MC4 receptor (MC4R) (Homo sapiens, UniProt P32245).
T1 construct: expressed in transfected cells; host or cells: CHO-CRE MC4R cells (membranes)
T1 sequence (P32245 whole entry): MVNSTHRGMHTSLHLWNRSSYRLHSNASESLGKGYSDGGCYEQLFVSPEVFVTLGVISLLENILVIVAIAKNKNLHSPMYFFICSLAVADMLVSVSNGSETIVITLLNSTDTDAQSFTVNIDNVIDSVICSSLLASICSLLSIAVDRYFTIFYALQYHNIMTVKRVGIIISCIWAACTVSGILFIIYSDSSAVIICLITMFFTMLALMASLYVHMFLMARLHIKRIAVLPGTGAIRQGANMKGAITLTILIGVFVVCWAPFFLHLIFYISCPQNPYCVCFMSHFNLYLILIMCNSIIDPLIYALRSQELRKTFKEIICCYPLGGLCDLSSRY
As to the kind of experiment: Nle4, D-Phe7-α-MSH inhibition at the MC4 receptor (competition binding, SPA, CHO-CRE MC4R membranes). The text has this:
Nle4, D-Phe7-α-MSH Inhibition at the MC4 Receptor
Nle4, D-Phe7-α-MSH is a stable analogue of melanocyte-stimulating hormone (MSH), which is an agonist at the MC4 receptor (MC4R). Compounds can be evaluated for their ability to inhibit Nle4, D-Phe7-α-MSH binding to membranes from cells expressing the MC4R using a competition binding assay versus [^125I] Nle4, D-Phe7-α-MSH.
Cells expressing the MC4R were subject to homogenisation and the membrane fragment isolated by differential centrifugation. CHO-CRE MC4R cell membranes were coupled to PVT-PEI-WGA SPA Beads type A for 2 hours, spun at 1000 RPM for 5 min and suspended to a concentration of 300 ug bead/ml (0.15 ug membrane, 15 ug bead per well). Bead/membrane mix was incubated with 0.06 nM [^125I] Nle4, D-Phe7-α-MSH and 11 half-log concentrations of competitor ligand, in duplicate, in a total volume of 50 μl buffer per well (25 mM HEPES, 1 mM MgCl2, 2.5 mM CaCl2, 1% Pluronic F68, 1 complete EDTA protease inhibitor tablet/50 ml pH7). Non-specific binding was determined by the inclusion of 100 nM SHU9119. The reaction was initiated by the addition of bead/membranes and plates were incubated at room temperature for 12 hours (the first hour on a plate shaker), after which the amount of radioactivity present was determined using a Wallac plate counter. Ki values were determined by data analysis using appropriate software.

The target of a further series is T2, MC3 receptor (MC3R) (Homo sapiens, UniProt P41968).
T2 construct: expressed in transfected cells; host or cells: CHO-CRE MC3R cells (membranes)
T2 sequence (P41968 whole entry): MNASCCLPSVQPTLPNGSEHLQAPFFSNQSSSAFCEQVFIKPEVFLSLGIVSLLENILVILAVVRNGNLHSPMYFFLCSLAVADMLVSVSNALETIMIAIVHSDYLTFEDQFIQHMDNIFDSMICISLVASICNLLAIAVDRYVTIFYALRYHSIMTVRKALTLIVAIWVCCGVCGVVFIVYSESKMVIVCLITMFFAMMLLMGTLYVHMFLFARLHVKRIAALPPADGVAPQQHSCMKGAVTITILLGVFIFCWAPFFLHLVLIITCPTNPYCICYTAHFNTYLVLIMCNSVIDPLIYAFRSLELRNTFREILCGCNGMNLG
As to the kind of experiment: Nle4, D-Phe7-α-MSH inhibition at the MC3 receptor (competition binding, SPA, CHO-CRE MC3R membranes). The text has this:
Nle4, D-Phe7-α-MSH Inhibition at the MC3 Receptor
Nle4, D-Phe7-α-MSH is a stable analogue of melanocyte-stimulating hormone (MSH), which is an agonist at the MC3 receptor (MC3R). Compounds can be evaluated for their ability to inhibit Nle4, D-Phe7-α-MSH binding to membranes from cells expressing the MC3R using a competition binding assay versus [^125I] Nle4, D-Phe7-α-MSH.
Cells expressing the MC3R were subject to homogenisation and the membrane fragment isolated by differential centrifugation. CHO-CRE MC3R cell membranes were coupled to PVT-PEI-WGA SPA Beads type A for 2 hours, spun at 1000 RPM for 5 mins and suspended to a final assay concentration of 800 ug bead/ml (1.2 ug membrane, 40 ug bead per well). Bead/membrane mix was incubated with 0.06 nM [^125I] Nle4, D-Phe7-α-MSH and 11 half-log concentrations of competitor ligand, in duplicate, in a total volume of 50 μl buffer per well (25 mM HEPES, 1 mM MgCl2, 2.5 mM CaCl2, 1% Pluronic F68, 1 complete EDTA protease inhibitor tablet/50 ml pH7). Non-specific binding was determined by the inclusion of 100 nM SHU9119. The reaction was initiated by the addition of bead/membranes and plates were incubated at room temperature for 12 hours (the first hour on a plate shaker), after which the amount of radioactivity present was determined using a Wallac plate counter. Ki values were determined by data analysis using appropriate software.

Another series has as its target T3, CYP3A4 (Homo sapiens, UniProt P08684).
T3 construct: utilizes human liver microsomes together with isoform-specific clinical drug probes; from tissue; host or cells: human liver microsomes
As to the kind of experiment: High density DDI 3 μM cocktail screen in human liver microsomes, midazolam probe. In kind it is in vitro ADME. As to conditions: human, liver microsomes, probe midazolam, read-out: % inhibition 3A4 @ 3 μM. Put shortly:
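Pooled human liver microsomes incubated with isoform-specific clinical probe substrates as a cocktail (midazolam for CYP3A4), with or without test compound at 3 μM. Metabolite formation followed over time by LC-MS/MS. Inhibition expressed as a single-point percentage.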

Series [1] is described as follows: In vitro metabolism rate determination, human liver microsome (HLM) assay. In kind it is in vitro ADME. As to conditions: human, liver microsomes, read-out: HLM: Clint, app. Put shortly:
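Human liver microsomes at 0.5 nmol cytochrome P450/ml with 1 μM substrate, pre-warmed 5 min at 37° C, reaction started with NADP; samples taken 0–60 min and terminated. Substrate loss measured; first-order rate constant from log-linear regression converted to half-life or Clint (μl/min/mg protein).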
On the technique in general: Microsomes from liver hold many membrane-bound enzymes, among them those of drug oxidation.

A word on the EC50: it is the concentration that produces a half-maximal response. Low values mean higher potency in that assay, high ones lower potency in that assay. In general, Ki refers to a dissociation constant, usually derived from enzyme kinetics or from competition with a known ligand. Usually inhibition stands for the share of the control response that was lost under treatment.

T3 sequence (P08684 whole entry, canonical isoform): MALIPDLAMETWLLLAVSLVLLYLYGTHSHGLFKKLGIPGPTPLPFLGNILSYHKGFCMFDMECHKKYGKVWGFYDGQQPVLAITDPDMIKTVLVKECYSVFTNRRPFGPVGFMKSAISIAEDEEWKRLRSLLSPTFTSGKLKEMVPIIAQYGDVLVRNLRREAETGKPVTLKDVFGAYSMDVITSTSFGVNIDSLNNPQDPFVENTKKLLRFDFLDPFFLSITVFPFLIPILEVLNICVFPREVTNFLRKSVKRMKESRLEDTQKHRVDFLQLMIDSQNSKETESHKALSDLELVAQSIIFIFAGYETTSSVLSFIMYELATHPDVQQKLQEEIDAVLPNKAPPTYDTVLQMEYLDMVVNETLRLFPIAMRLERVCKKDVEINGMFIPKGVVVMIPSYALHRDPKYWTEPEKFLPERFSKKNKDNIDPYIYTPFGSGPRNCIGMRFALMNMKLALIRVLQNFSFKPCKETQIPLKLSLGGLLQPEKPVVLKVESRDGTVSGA
MC4 receptor, sequence (P32245 whole entry): as the sequence (P32245 whole entry) above

At MC4 receptor, `COC(=O)N1CCN(C(=O)[C@@H]2CN(C3CCOCC3)C[C@H]2c2ccc(F)cc2F)CCCC1c1ccccc1` (mixture of isomers) [Example 74] came in with a 50% effective concentration (EC50) of 0.0867 µM. Besides, the inhibition constant Ki was 1.39 µM at MC4 receptor (MC4R) and 19.6 µM at MC3 receptor (MC3R). The inhibition at 3 µM at CYP3A4 is 56%. In series [1], the microsomal CLint at 1 μM was 74 µL/min/mg.
In the same order, the values of `COC(=O)N1CCN(C(=O)[C@@H]2CN(c3ccc(C#N)nn3)C[C@H]2c2ccc(F)cc2F)CCCC1c1ccc(Cl)cc1` (mixture of isomers) [Example 75] are 0.0107 µM, 0.0847 µM, 0.462 µM, 73.5% and 8 µL/min/mg.
On to `COC(=O)N1CCN(C(=O)[C@@H]2CN(c3ccc(=O)n(C)n3)C[C@H]2c2ccc(F)cc2F)CCCC1c1ccc(Cl)cc1` (mixture of isomers) [Example 80], for which a half-maximal effect on MC4 receptor (EC50) was put at 0.00541 µM. Also, the inhibition constant (Ki) was 0.0498 µM at MC4 receptor (MC4R) and 0.627 µM on MC3 receptor (MC3R). Moreover, the inhibition at 3 µM on CYP3A4 came out at 70.5%. In addition, the microsomal CLint at 1 μM in series [1] turned out to be 19 µL/min/mg.
For `Cn1nc(N2C[C@@H](C(=O)N3CCCC(c4ccc(Cl)cc4)N(S(C)(=O)=O)CC3)[C@H](c3ccc(F)cc3F)C2)ccc1=O` (mixture of isomers) [Example 81], in that order: 0.02 µM, 0.122 µM, 1.75 µM, 32% and 18 µL/min/mg.
Turning to `COC(=O)N1CCN(C(=O)[C@@H]2CN(C(C)(C)C)C[C@H]2c2ccc(F)cc2F)CCCC1c1ccccc1` (mixture of isomers) [Example 82], the concentration for a half-maximal effect (EC50) at MC4 receptor was found to be 0.0606 µM. Moreover, the Ki at MC4 receptor (MC4R) turned out to be 5.18 µM; at MC3 receptor (MC3R), 19.4 µM. Moreover, the inhibition at 3 µM at CYP3A4 turned out to be 47%. For the same compound, the microsomal CLint at 1 μM in series [1] was found to be 66 µL/min/mg.
`COC(=O)N1CCN(C(=O)[C@@H]2CN(C(C)(C)C)C[C@H]2c2ccc(F)cc2F)CCCC1c1ccc(Cl)cc1` (mixture of isomers) [Example 83]: the EC50 at MC4 receptor was determined as 0.0321 µM. For the same compound, the Ki at MC4 receptor (MC4R) is 1.69 µM; at MC3 receptor (MC3R), 8.11 µM. Besides, at CYP3A4, the inhibition at 3 µM was 29%. Moreover, the microsomal CLint at 1 μM in series [1] is 23 µL/min/mg.
In the same order, the values of `COc1ccc([C@@H]2CN(C(C)(C)C)C[C@H]2C(=O)N2CCCC(c3ccc(Cl)cc3)N(S(C)(=O)=O)CC2)c(F)c1` (mixture of isomers) [Example 92] are 0.274 µM, 1.77 µM, 17.9 µM, 33.5% and 32.4 µL/min/mg.
With `COC(=O)N1CCN(C(=O)[C@@H]2CN(C(=O)OC(C)(C)C)C[C@H]2c2ccc(F)cc2F)CCCC1c1ccccc1` (mixture of isomers) [Example 97], the EC50 on MC4 receptor was determined as 0.157 µM. For the same compound, the figures for the inhibition constant (Ki) at MC4 receptor (MC4R) and at MC3 receptor (MC3R) were 1.62 µM and 3.72 µM, respectively. The inhibition at 3 µM on CYP3A4 was found to be 63%. For the same compound, the microsomal CLint at 1 μM in series [1] was determined as 247 µL/min/mg.
Take `CCCC(=O)N1CCN(C(=O)[C@@H]2CN(C(C)(C)C)C[C@H]2c2ccc(F)cc2F)CCCC1c1ccccc1` (mixture of isomers) [Example 104, 1-{[(3S,4R)-1-tert-butyl-4-(2,4-difluorophenyl)pyrrolidin-3-yl]carbonyl}-4-butyryl-5-phenyl-1,4-diazocane]: a half-maximal effect on MC4 receptor (EC50) was put at 0.018 µM. In addition, the figures for the Ki on MC4 receptor (MC4R) and on MC3 receptor (MC3R) were 0.583 µM and 9.08 µM, respectively. Also, the inhibition at 3 µM on CYP3A4 is 48%. In addition, in series [1], the microsomal CLint at 1 μM was 69.2 µL/min/mg.
For `COc1ccc([C@@H]2CN(c3ccc(C#N)nn3)C[C@H]2C(=O)N2CCCC(c3ccc(Cl)cc3)N(S(C)(=O)=O)CC2)c(F)c1` (mixture of isomers) [Example 105, 6-[(3S,4R)-3-{[5-(4-chlorophenyl)-4-(methylsulfonyl)-1,4-diazocan-1-yl]carbonyl}-4-(2-fluoro-4-methoxyphenyl)pyrrolidin-1-yl]pyridazine-3-carbonitrile], the response at MC4 receptor was half-maximal at 0.0361 µM (EC50). Further, the figures for the Ki at MC4 receptor (MC4R) and on MC3 receptor (MC3R) were 0.0922 µM and 0.571 µM, respectively. Moreover, the inhibition at 3 µM at CYP3A4 was 37.5%. For the same compound, the microsomal CLint at 1 μM in series [1] came out at 42 µL/min/mg.
For `COC(=O)N1CCN(C(=O)[C@@H]2CN(c3ccc(Cl)nn3)C[C@H]2c2ccc(OC)cc2F)CCCC1c1ccc(Cl)cc1` (mixture of isomers) [Example 107, Methyl 8-(4-chlorophenyl)-4-{[(3S,4R)-1-(6-chloropyridazin-3-yl)-4-(2-fluoro-4-methoxyphenyl)pyrrolidin-3-yl]carbonyl}-1,4-diazocane-1-carboxylate], in that order: 0.0277 µM, 0.0964 µM, 0.683 µM, 55.5% and 47 µL/min/mg.
The compound `COC(=O)N1CCN(C(=O)[C@@H]2CN(c3ccc(=O)[nH]n3)C[C@H]2c2ccc(OC)cc2F)CCCC1c1ccc(Cl)cc1` (mixture of isomers) [Example 112, methyl 8-(4-chlorophenyl)-4-{[(3S,4R)-4-(2-fluoro-4-methoxyphenyl)-1-(6-oxo-1,6-dihydropyridazin-3-yl)pyrrolidin-3-yl]carbonyl}-1,4-diazocane-1-carboxylate] displayed a 50% effective concentration (EC50) on MC4 receptor of 0.00338 µM. The Ki at MC4 receptor (MC4R) came out at 0.0174 µM; on MC3 receptor (MC3R), 0.404 µM. On CYP3A4, the inhibition at 3 µM amounted to 65.5%. Also, in series [1], the microsomal CLint at 1 μM is 15 µL/min/mg.
In the same order, the values of `COC(=O)N1CCN(C(=O)[C@@H]2CN(c3ccc(=O)n(C)n3)C[C@H]2c2ccc(OC)cc2F)CCCC1c1ccc(Cl)cc1` (mixture of isomers) [Example 116] are 0.0036 µM, 0.0243 µM, 0.573 µM, 75% and 12 µL/min/mg.
In the same order, the values of `COc1ccc([C@@H]2CN(c3ccc(=O)[nH]n3)C[C@H]2C(=O)N2CCCC(c3ccc(Cl)cc3)N(S(C)(=O)=O)CC2)c(F)c1` (mixture of isomers) [Example 111, 6-[(3S,4R)-3-{[5-(4-chlorophenyl)-4-(methylsulfonyl)-1,4-diazocan-1-yl]carbonyl}-4-(2-fluoro-4-methoxyphenyl)pyrrolidin-1-yl]pyridazin-3(2H)-one] are 0.0147 µM, 0.0684 µM, 0.942 µM, 66.5% and 24 µL/min/mg.
On to `COc1ccc([C@@H]2CN(c3ccc(=O)n(C)n3)C[C@H]2C(=O)N2CCCC(c3ccc(Cl)cc3)N(S(C)(=O)=O)CC2)c(F)c1` (mixture of isomers) [Example 115, 6-[(3S,4R)-3-{[5-(4-chlorophenyl)-4-(methylsulfonyl)-1,4-diazocan-1-yl]carbonyl}-4-(2-fluoro-4-methoxyphenyl)pyrrolidin-1-yl]-2-methylpyridazin-3(2H)-one], for which it took 0.0157 µM to reach a half-maximal effect at MC4 receptor (EC50). In addition, the Ki at MC4 receptor (MC4R) was 0.0539 µM; on MC3 receptor (MC3R) it was 1.09 µM. Moreover, on CYP3A4, the inhibition at 3 µM worked out at 58.2%. In addition, the microsomal CLint at 1 μM in series [1] was found to be 22.7 µL/min/mg.

These data come from patent US8592403B2, “Diazepine and diazocane compounds as MC4 agonists” (Pfizer Limited, priority 2008, dated 2013).
